Experimental data reported in patent US10138235B2, “Pyrazolopyridine derivatives, preparation process therefor and therapeutic use thereof” (SANOFI, priority 2011, dated 2018).

Columns and labels:
[1] = test system: HUVEC cells stimulated with FGF-2; assay: In vitro angiogenesis of HUVEC cells induced with FGF-2 (length of pseudotubules); format: cell-based, human; conditions: concentration at which active on FGF-2-induced angiogenesis of HUVEC cells, evaluated from 0.03 nM to 300 nM; for minimal effective concentration: Homo sapiens, 24 h
Protocol: To do this, matrices composed of matrigel (growth factor reduced matrigel, Becton Dickinson 356230) and of collagen (rat tail collagen type I, Becton Dickinson 354236) are deposited in an amount of 160 μl into each chamberslide well (Biocoat Cellware collagen, Type I, 8-well culturesides: Becton dickinson 354630), or 60 μl per well of 96-plate wells (Biocoat collagenl cellware, Becton Dickinson 354407). The matrix is prepared by mixing ⅓ of matrigel, 1 mg/ml final of collagen, 0.1N NaOH (0.026× the volume of collagen in μl), PBS 1×, and the volume is then adjusted with water. The gels are kept for 1 hour at 37° C. to allow their polymerization. Next, the human venous endothelial cells (HUVEC ref.: C-12200—Promocell) were seeded at 15×10^3 or 6×10^3 cells/well in 400 or 120 μl (for the 8-well or 96-well plates, respectively) of EBM medium (Clonetics C3121)+2% FBS+hEGF 10 μg/ml. They are stimulated with 1 or 3 ng/ml of FGF-2 (R&D system, 133-FB-025; Invitrogen, PHG0026) for 24 hours at 37° C. in the presence of 5% CO2. After 24 hours, the length of the network of microtubules formed is measured by means of the computer-assisted image analysis system (Imagenia Biocom, Courtaboeuf, France) and the total length of the pseudotubules in each well is determined. The mean total length of the microcapillary network is calculated in μm for each condition corresponding to the mean on 6 replicates
Stimulation with FGF-2 allows induction of the formation of new tubules. An FGF-R antagonist is considered as being active in this test if it is capable of partially inhibiting this angiogenesis at a dose of less than or equal to 300 nM.
In this experiment, the molecules are evaluated from 0.03 nM to 300 nM depending on the molecule with regard to induction of the angiogenesis of human HUVEC cells with FGF-2. Compounds 38 (Example 2), 46 (Example 1), 53 (Example 3), 56 (Example 4), 57 (Example 6), 61 (Example 5), 75 (Example 12), 83 (Example 13), 88 (Example 8), 91 (Example 15), 93 (Example 14), 106 (Example 11), 108 (Example 7) and 114 (Example 9) are active since they have inhibitory activity on the formation of pseudotubules of greater than or equal to 20% at a dose of less than or equal to 300 nM (FIG. 1). In the following table, A=active for a concentration<1 nM, B=active at a concentration of 1 nM, C=active at a concentration of 3 nM, D=active at a concentration of 10 nM, E=active at a concentration of 30 nM, and F=active at a concentration of 300 nM.

[2] = test system: inflammatory angiogenesis in mice; assay: Model of inflammatory angiogenesis in mice (air pocket granuloma); format: in vivo; conditions: 30 mg/kg, after one week of treatment
Protocol: The model described by Colville-N H et al. in 1995 makes it possible to study pharmacological agents that are capable of modulating the appearance of angiogenesis in an inflammatory context. The model is developed on female OF1 mice (Charles River laboratories) weighing about 25 g, and per group of 12. The animals are anaesthetized intraperitoneally with pentobarbital sodium (60 mg/kg; Sanofi Nutrition Santé Animale). An air pocket is created on the mouse's back by injecting 3 ml of air subcutaneously. After waking up, the animals receive a treatment in general by gavage and receive an injection of 0.5 ml of Freud's adjuvant (Sigma) with 0.1% croton oil (Sigma) into the pocket. Seven days later, the mice are again anaesthetized and placed on a hotplate at 40° C. 1 ml of carmine red (Aldrich Chemicals, 5% in 10% of gelatin) is injected into the caudal vein. The animals are then placed at 4° C. for 2-3 hours. The skins are then removed and dried for 24 hours in an oven at 56° C. […] The filtrates are read in a spectrophotometer at 492 nm against a calibration range of carmine red. […] The results are expressed as mean values (±sem). […]
The FGF-R antagonists are evaluated between 1 and 50 mg/kg using methylcellulose/Tween (0.6% v/v) as vehicle or any other vehicle that enables dissolution of the active principle. […]

Compound | minimal effective concentration [1] [µM] | weight of granuloma (dry weight of the skin) [2] | melting point [°C] | Activity [1]
COc1cc(-c2cc(C(=O)O)c3cn[nH]c3n2)ccc1N [Compound 38, 6-(4-Amino-3-methoxyphenyl)-1H-pyrazolo[3,4-b]pyridine-4-carboxylic acid] | 0.003 | – | – | –
NC(=O)c1cc(-c2ccc(F)c(C(=O)O)c2)nc2[nH]nc(-c3ccccc3)c12 [Compound 46, 5-(4-Carbamoyl-3-phenyl-1H-pyrazolo[3,4-b]pyridin-6-yl)-2-fluorobenzoic acid] | < 0.001 | significantly reduces | – | –
O=C(O)c1cc(-c2cc(C(F)F)c3c(-c4ccccc4)n[nH]c3n2)ccc1F [Compound 53, 5-[4-(Difluoromethyl)-3-phenyl-1H-pyrazolo[3,4-b]pyridin-6-yl)-2-fluorobenzoic acid] | < 0.001 | – | – | –
O=C(O)c1cc(-c2cc(C(F)(F)F)c3c(-c4ccccc4)n[nH]c3n2)ccc1F [Compound 56, 2-Fluoro-5-[3-phenyl-4-(trifluoromethyl)-1H-pyrazolo[3,4-b]pyridin-6-yl]benzoic acid] | < 0.001 | – | – | –
Cn1nc(-c2ccccc2)c2c(C(F)(F)F)cc(-c3ccc(N)c(C#N)c3)nc21 [Compound 57, 2-Amino-5-[1-methyl-3-phenyl-4-(trifluoromethyl)-1H-pyrazolo[3,4-b]pyridin-6-yl]benzonitrile] | 0.003 | – | 269 | –
CN(C)c1ccc(-c2cc(C(F)(F)F)c3c(-c4ccccc4)n[nH]c3n2)cc1 [Compound 61, N,N-Dimethyl-4-[3-phenyl-4-(trifluoromethyl)-1H-pyrazolo[3,4-b]pyridin-6-yl]aniline] | 0.001 | – | 227 | –
Cn1ncc2c(C(F)F)cc(-c3ccc(N)c(C#N)c3)nc21 [Compound 72, 2-Amino-5-[4-(difluoromethyl)-1-methyl-1H-pyrazolo[3,4-b]pyridin-6-yl]benzonitrile] | 0.01 | – | 251 | –
N#Cc1cc(-c2cc(C(F)F)c3cn[nH]c3n2)ccc1N [Compound 75, 2-Amino-5-[4-(difluoromethyl)-1H-pyrazolo[3,4-b]pyridin-6-yl]benzonitrile] | 0.01 | – | 263 | –
CN(C)CCn1ncc2c(C(F)F)cc(-c3ccc(N)c(C#N)c3)nc21 [Compound 83] | – | – | – | D (D=active at a concentration of 10 nM)
Cn1ncc2c(C(F)(F)F)cc(-c3ccc(N)c(C#N)c3)nc21 [Compound 88, 2-Amino-5-[1-methyl-4-(trifluoromethyl)-1H-pyrazolo[3,4-b]pyridin-6-yl]benzonitrile] | 0.003 | – | 276 | –
N#Cc1cc(-c2cc(C(F)F)c3c(-c4cccnc4)n[nH]c3n2)ccc1N [Compound 91, 2-Amino-5-[4-(difluoromethyl)-3-(pyridin-3-yl)-1H-pyrazolo[3,4-b]pyridin-6-yl]benzonitrile] | 0.3 | – | 296 | –
Cn1nc(-c2cccnc2)c2c(C(F)(F)F)cc(-c3cccc(CN4CCOCC4)c3)nc21 [Compound 93] | – | – | – | F (F=active at a concentration of 300 nM)
Cn1cc2c(C(F)F)cc(-c3ccc(N)c(C#N)c3)nc2n1 [Compound 106, 2-Amino-5-[4-(difluoromethyl)-2-methyl-2H-pyrazolo[3,4-b]pyridin-6-yl]benzonitrile] | < 0.001 | – | – | –
Cn1nc2nc(-c3ccc(N)c(C#N)c3)cc(C(F)(F)F)c2c1-c1ccccc1 [Compound 108, 2-Amino-5-[2-methyl-3-phenyl-4-(trifluoromethyl)-2H-pyrazolo[3,4-b]pyridin-6-yl]benzonitrile] | 0.003 | – | 295 | –
Cn1cc2c(C(F)(F)F)cc(-c3ccc(N)c(C#N)c3)nc2n1 [Compound 114, 2-Amino-5-[2-methyl-4-(trifluoromethyl)-2H-pyrazolo[3,4-b]pyridin-6-yl]benzonitrile] | 0.003 | – | 249 | –
